According to patent US20020184551A1, “Process for the preparation of deactivated rice bran lipase” (COUNCIL OF SCIENTIFIC & INDUSTRIAL RESEARCH, priority 2001, published 2002):
Where two headings read alike, the source gives them in different places.

Assays:
rice bran lipase [1] = test system: rice bran lipase
Description: The enzyme solution containing different concentrations of ligands was passed through a sephadex G25 column which was previously equilibrated with the elution buffer. The protein eluting immediately after the void volume was collected and assayed for the activity.
The enzyme was also checked for reversibility of its original activity after removal of ligands by gel filtrations on Sephadex G-25 column.

rice bran lipase [2] = conditions: lipase 2 mg/ml, substrate 5% w/v, CaCl2 0.1 M
Description: To approximately 2 mg of rice bran lipase in 0.05 M sodium phosphate buffer, pH 7.4 is added different concentrations of ligands ranging from 1:10 to 1:1500 mole to mole ratio of protein to ligand and incubated for 1 h at30° C. in Innova™ 4000 incubator shaker at 150 rpm. The reaction mixture was checked for enzyme activity by pH-stat method using Mettler Toledo DL12 titrator using 5% solution of triacetin or tributyrin as substrate. Respective blank solutions where the enzyme was inactivated by the addition of distilled alcohol was also used. The activity was expressed in terms of control activity as microequivalents of alkali consumed per mg of protein per hour.
To approximately 2 mg of rice bran lipase in 0.05 m sodium phosphate buffer, pH 7.4 is added different concentrations of ligand ranging from 1:10 to 1:1500 on a mole to mole ratio and incubated fpr 1 hr at 30° C. in Innova™ 4000 incubator shaker at 150 rpm. The reaction mixture was checked for enzyme activity by pH start method using mettler Toledo DL 12 titrator using 5% solution of triacetin or tributyrin as substrate. Respective blank solutions where the enzyme was inactivated by the addition of distilled alcohol was also used. The activity was expressed in terms of control activity as micro equivalent of alkali consumed per mg of protein per hour.

With benzene boronic acid [ligand] the “reversibility of enzyme activity after removal of ligand” value (rice bran lipase [1]; 1:10 ratio, Sephadex G-25 column chromatography) was “able to recover the initial activity”, the “reversibility of enzyme activity after removal of ligand” value (rice bran lipase [1]; 1:1500 mole to mole ratio, gel filtration on Sephadex G-25 column) was “recovered almost its original activity” and the “loss of initial activity of rice bran lipase” value (rice bran lipase [2]; 1:10 mole to mole ratio of protein to ligand) was 35%. For the same substance, the “loss of initial activity of rice bran lipase” value (rice bran lipase [2]; 1:1500 mole/mole protein to ligand) was about 77%.
